In patent US11524968B2, “Heterocyclic compound as a protein kinase inhibitor” (HK inno.N Corporation, priority 2017, dated 2022):

Target: JAK1 (Homo sapiens (Human), UniProt P23458)
Experiment: Analysis of JAK1 activity inhibition ability (ADP-Glo Kinase Assay)
Type: biochemical
Conditions: JAK1 enzyme, ADP-Glo luminescence, ATP 250 uM, IRS-itide substrate, 30° C. 40 minutes; read-out: IC50
Procedure, shortened: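 ADP-Glo luminescence read-out of ADP production, with IC50 taken as the concentration halving JAK1 activity relative to control. Enzyme was incubated 40 min at 30 °C with compound, IRS-itide (40 ng/mL) and ATP (250 uM), concentrations as prepared in pH 7.5 Tris-HCl/MgCl2/BSA/DTT buffer.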

JAK1, sequence (P23458 whole entry): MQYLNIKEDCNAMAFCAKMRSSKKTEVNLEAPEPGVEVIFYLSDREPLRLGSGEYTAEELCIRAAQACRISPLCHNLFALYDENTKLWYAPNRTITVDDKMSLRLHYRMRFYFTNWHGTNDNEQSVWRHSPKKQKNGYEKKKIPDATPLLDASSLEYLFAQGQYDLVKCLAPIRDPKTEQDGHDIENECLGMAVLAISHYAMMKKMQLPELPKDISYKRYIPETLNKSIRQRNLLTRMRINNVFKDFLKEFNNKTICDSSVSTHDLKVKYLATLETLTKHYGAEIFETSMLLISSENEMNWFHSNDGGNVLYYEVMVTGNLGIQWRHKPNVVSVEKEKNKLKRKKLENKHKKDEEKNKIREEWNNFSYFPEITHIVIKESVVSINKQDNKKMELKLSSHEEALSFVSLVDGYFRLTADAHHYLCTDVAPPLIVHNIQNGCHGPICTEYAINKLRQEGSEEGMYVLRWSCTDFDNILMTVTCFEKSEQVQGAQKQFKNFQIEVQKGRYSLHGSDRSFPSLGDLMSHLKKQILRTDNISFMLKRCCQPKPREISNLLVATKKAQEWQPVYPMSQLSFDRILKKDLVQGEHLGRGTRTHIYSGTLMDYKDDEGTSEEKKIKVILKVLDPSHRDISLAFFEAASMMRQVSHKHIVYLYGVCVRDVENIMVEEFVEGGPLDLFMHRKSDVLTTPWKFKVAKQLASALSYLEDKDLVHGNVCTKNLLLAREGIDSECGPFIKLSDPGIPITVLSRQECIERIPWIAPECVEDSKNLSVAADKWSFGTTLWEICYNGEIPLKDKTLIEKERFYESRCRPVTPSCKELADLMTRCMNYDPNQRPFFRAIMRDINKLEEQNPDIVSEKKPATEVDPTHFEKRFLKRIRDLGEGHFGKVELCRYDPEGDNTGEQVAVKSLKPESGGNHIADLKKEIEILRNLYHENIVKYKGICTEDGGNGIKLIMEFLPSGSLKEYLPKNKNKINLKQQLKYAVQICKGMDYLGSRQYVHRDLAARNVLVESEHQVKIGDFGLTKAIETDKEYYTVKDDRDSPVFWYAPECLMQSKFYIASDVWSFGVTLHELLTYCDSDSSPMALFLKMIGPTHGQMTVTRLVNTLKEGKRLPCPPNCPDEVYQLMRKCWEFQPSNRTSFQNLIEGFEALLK

SMILES	IC50 [nM]
CCCCS(=O)(=O)Nc1ccc(-c2cc(NC(=O)C3CC3)nc3[nH]ccc23)c(CC)c1 [Example 116, N-(4-(4-(butylsulfonamido)-2-ethylphenyl)-1H-pyrrolo[2,3-b]pyridin-6-yl)cyclopropanecarboxamide]	20 to 200
Cc1cc(NS(=O)(=O)CCCC(F)(F)F)ccc1-c1cc(NC(=O)C2CC2)nc2[nH]ccc12 [Example 117, N-(4-(2-methyl-4-((4,4,4-trifluorobutyl)sulfonamido)phenyl)-1H-pyrrolo[2,3-b]pyridin-6-yl)cyclopropanecarboxamide]	< 20
O=C(Nc1cc(-c2ccc(NS(=O)(=O)C3CC3)cc2C(F)(F)F)c2cc[nH]c2n1)C1CC1 [Example 118, N-(4-(4-(cyclopropanesulfonamido)-2-(trifluoromethyl)phenyl)-1H-pyrrolo[2,3-b]pyridin-6-yl)cyclopropanecarboxamide]	20 to 200
CCCS(=O)(=O)Nc1ccc(-c2cc(NC(=O)C3CC3)nc3[nH]ccc23)c(C(F)(F)F)c1 [Example 119, N-(4-(4-(propylsulfonamido)-2-(trifluoromethyl)phenyl)-1H-pyrrolo[2,3-b]pyridin-6-yl)cyclopropanecarboxamide]	20 to 200
O=C(Nc1cc(-c2ccc(NS(=O)(=O)C3CCC3)cc2C(F)(F)F)c2cc[nH]c2n1)C1CC1 [Example 120, N-(4-(4-(cyclobutanesulfonamido)-2-(trifluoromethyl)phenyl)-1H-pyrrolo[2,3-b]pyridin-6-yl)cyclopropanecarboxamide]	20 to 200
O=C(Nc1cc(-c2ccc(NS(=O)(=O)c3ccc(F)c(F)c3)cc2C(F)(F)F)c2cc[nH]c2n1)C1CC1 [Example 121, N-(4-(4-((3,4-difluorophenyl)sulfonamido)-2-(trifluoromethyl)phenyl)-1H-pyrrolo[2,3-b]pyridin-6-yl)cyclopropanecarboxamide]	20 to 200
O=C(Nc1cc(-c2ccc(NS(=O)(=O)c3cccc(F)c3)cc2C(F)(F)F)c2cc[nH]c2n1)C1CC1 [Example 122, N-(4-(4-((3-fluorophenyl)sulfonamido)-2-(trifluoromethyl)phenyl)-1H-pyrrolo[2,3-b]pyridin-6-yl)cyclopropanecarboxamide]	20 to 200
CCc1cc(-c2cc(NC(=O)C3CC3)nc3[nH]ccc23)ccc1NS(=O)(=O)CC1(C#N)CC1 [Example 123, N-(4-(4-(((1-cyanocyclopropyl)methyl)sulfonamido)-3-ethylphenyl)-1H-pyrrolo[2,3-b]pyridin-6-yl)cyclopropanecarboxamide]	< 20
CCc1cc(-c2cc(NC(=O)C3CC3)nc3[nH]ccc23)ccc1NS(=O)(=O)CC [Example 124, N-(4-(3-ethyl-4-(ethylsulfonamido)phenyl)-1H-pyrrolo[2,3-b]pyridin-6-yl)cyclopropanecarboxamide]	< 20
CCc1cc(-c2cc(NC(=O)C3CC3)nc3[nH]ccc23)ccc1NS(=O)(=O)C1CC1 [Example 125, N-(4-(4-(cyclopropanesulfonamido)-3-ethylphenyl)-1H-pyrrolo[2,3-b]pyridin-6-yl)cyclopropanecarboxamide]	< 20
CCCS(=O)(=O)Nc1ccc(-c2cc(NC(=O)C3CC3)nc3[nH]ccc23)cc1CC [Example 126, N-(4-(3-ethyl-4-(propylsulfonamido)phenyl)-1H-pyrrolo[2,3-b]pyridin-6-yl)cyclopropanecarboxamide]	< 20
CCCCS(=O)(=O)Nc1ccc(-c2cc(NC(=O)C3CC3)nc3[nH]ccc23)cc1CC [Example 127, N-(4-(4-(butylsulfonamido)-3-ethylphenyl)-1H-pyrrolo[2,3-b]pyridin-6-yl)cyclopropanecarboxamide]	20 to 200
CCc1cc(-c2cc(NC(=O)C3CC3)nc3[nH]ccc23)ccc1NS(=O)(=O)C1CCC1 [Example 128, N-(4-(4-(cyclobutanesulfonamido)-3-ethylphenyl)-1H-pyrrolo[2,3-b]pyridin-6-yl)cyclopropanecarboxamide]	< 20
CS(=O)(=O)Nc1ccc(-c2cc(NC(=O)C3CC3)nc3[nH]ccc23)cc1-c1ccccc1 [Example 129, N-(4-(6-(methylsulfonamido)-[1,1′-biphenyl]-3-yl)-1H-pyrrolo[2,3-b]pyridin-6-yl)cyclopropanecarboxamide]	> 200
O=C(Nc1cc(-c2ccc(NS(=O)(=O)C3CC3)c(-c3ccccc3)c2)c2cc[nH]c2n1)C1CC1 [Example 130, N-(4-(6-(cyclopropanesulfonamido)-[1,1′-biphenyl]-3-yl)-1H-pyrrolo[2,3-b]pyridin-6-yl)cyclopropanecarboxamide]	> 200
CCS(=O)(=O)Nc1ccc(-c2cc(NC(=O)C3CC3)nc3[nH]ccc23)c(C)c1C [Example 131, N-(4-(4-(ethylsulfonamido)-2,3-dimethylphenyl)-1H-pyrrolo[2,3-b]pyridin-6-yl)cyclopropanecarboxamide]	20 to 200
CCCS(=O)(=O)Nc1ccc(-c2cc(NC(=O)C3CC3)nc3[nH]ccc23)c(C)c1C [Example 132, N-(4-(2,3-dimethyl-4-(propylsulfonamido)phenyl)-1H-pyrrolo[2,3-b]pyridin-6-yl)cyclopropanecarboxamide]	20 to 200
Cc1c(NS(=O)(=O)C2CC2)ccc(-c2cc(NC(=O)C3CC3)nc3[nH]ccc23)c1C [Example 133, N-(4-(4-(cyclopropanesulfonamido)-2,3-dimethylphenyl)-1H-pyrrolo[2,3-b]pyridin-6-yl)cyclopropanecarboxamide]	< 20
CCS(=O)(=O)Nc1ccc(-c2cc(NC(=O)C3CC3)[n+]([O-])c3[nH]ccc23)c(C)c1 [Example 134, 6-(cyclopropanecarboxamido)-4-(4-(ethylsulfonamido)-2-methylphenyl)-1H-pyrrolo[2,3-b]pyridine 7-oxide]	20 to 200
CCc1cc(-c2cc(NC(=O)C3CC3)[n+]([O-])c3[nH]ccc23)ccc1NS(=O)(=O)CC [Example 135, 6-(cyclopropanecarboxamido)-4-(3-ethyl-4-(ethylsulfonamido)phenyl)-1H-pyrrolo[2,3-b]pyridine 7-oxide]	20 to 200
Cc1c(NS(=O)(=O)C2CC2)ccc(-c2cc(NC(=O)C3CC3)[n+]([O-])c3[nH]ccc23)c1C [Example 136, 6-(cyclopropanecarboxamido)-4-(4-(cyclopropanesulfonamido)-2,3-dimethylphenyl)-1H-pyrrolo[2,3-b]pyridine 7-oxide]	20 to 200

Continued, values first:

IC50 [nM]	SMILES
< 20	CCc1cc(NS(=O)(=O)CC2(C#N)CC2)ccc1-c1cc(NC(=O)C2CC2)[n+]([O-])c2[nH]ccc12 [Example 137, 4-(4-(((1-cyanocyclopropyl)methyl)sulfonamido)-2-ethylphenyl)-6-(cyclopropanecarboxamido)-1H-pyrrolo[2,3-b]pyridine 7-oxide]
> 200	CCc1cc(-c2cc(NC(=O)C3CC3)nc3[nH]ccc23)cc(CC)c1NS(=O)(=O)CC1(C#N)CC1 [Example 138, N-(4-(4-(((1-cyanocyclopropyl)methyl)sulfonamido)-3,5-diethylphenyl)-1H-pyrrolo[2,3-b]pyridin-6-yl)cyclopropanecarboxamide]
> 200	CCc1cc(-c2cc(NC(=O)C3CC3)nc3[nH]ccc23)cc(CC)c1NS(=O)(=O)c1ccc(F)c(F)c1 [Example 139, N-(4-(4-((3,4-difluorophenyl)sulfonamido)-3,5-diethylphenyl)-1H-pyrrolo[2,3-b]pyridin-6-yl)cyclopropanecarboxamide]
> 200	CCS(=O)(=O)Nc1ccc(-c2cc(NC(=O)C3CC3)nc3[nH]ccc23)c(C(=O)OC)c1 [Example 140, methyl 2-(6-(cyclopropanecarboxamido)-1H-pyrrolo[2,3-b]pyridin-4-yl)-5-(ethylsulfonamido)benzoate]
> 200	CCCS(=O)(=O)Nc1ccc(-c2cc(NC(=O)C3CC3)nc3[nH]ccc23)c(C(=O)OC)c1 [Example 141, methyl 2-(6-(cyclopropanecarboxamido)-1H-pyrrolo[2,3-b]pyridin-4-yl)-5-(propylsulfonamido)benzoate]
> 200	COC(=O)c1cc(NS(=O)(=O)CC2(C#N)CC2)ccc1-c1cc(NC(=O)C2CC2)nc2[nH]ccc12 [Example 142, methyl 5-(((1-cyanocyclopropyl)methyl)sulfonamido)-2-(6-(cyclopropanecarboxamido)-1H-pyrrolo[2,3-b]pyridin-4-yl)benzoate]
> 200	N#CC1(CS(=O)(=O)Nc2ccc(-c3cc(NC(=O)C4CC4)nc4[nH]ccc34)c(C(=O)O)c2)CC1 [Example 143]
20 to 200	CCS(=O)(=O)Nc1ccc(-c2cc(NC(=O)C3CC3)nc3[nH]ccc23)c(C#N)c1 [Example 144, N-(4-(2-cyano-4-(ethylsulfonamido)phenyl)-1H-pyrrolo[2,3-b]pyridin-6-yl)cyclopropanecarboxamide]
20 to 200	CCCS(=O)(=O)Nc1ccc(-c2cc(NC(=O)C3CC3)nc3[nH]ccc23)c(C#N)c1 [Example 145, N-(4-(2-cyano-4-(propylsulfonamido)phenyl)-1H-pyrrolo[2,3-b]pyridin-6-yl)cyclopropanecarboxamide]
> 200	N#Cc1cc(NS(=O)(=O)c2ccc(F)c(F)c2)ccc1-c1cc(NC(=O)C2CC2)nc2[nH]ccc12 [Example 146, N-(4-(2-cyano-4-((3,4-difluorophenyl)sulfonamido)phenyl)-1H-pyrrolo[2,3-b]pyridin-6-yl)cyclopropanecarboxamide]
> 200	N#Cc1cc(NS(=O)(=O)CC2(C#N)CC2)ccc1-c1cc(NC(=O)C2CC2)nc2[nH]ccc12 [Example 147, N-(4-(2-cyano-4-(((1-cyanocyclopropyl)methyl)sulfonamido)phenyl)-1H-pyrrolo[2,3-b]pyridin-6-yl)cyclopropanecarboxamide]
20 to 200	CCS(=O)(=O)Nc1ccc(-c2cc(NC(=O)C3CC3)nc3[nH]ccc23)cn1 [Example 148, N-(4-(6-(ethylsulfonamido)pyridin-3-yl)-1H-pyrrolo[2,3-b]pyridin-6-yl)cyclopropanecarboxamide]
